# Test results reported in US4146628A, “Antiarrhythmic quinuclidine carboxylic acid xylidide and method of producing the same and similar compounds” (priority 1977, dated 1979).
# Values joined by “and” are separate entries in the source; they are usually repeats but may differ in a detail not shown here. Identical values can stand only once. “Also recorded” adds a separate entry of the source. Counter-ions that a name gives are not always drawn. Like-named read-outs stand apart in the source and are kept apart here.
# Columns and labels:
# [1] = in vivo
# [2] = Summary comparison with lidocaine: side effects; settings: summary table
# [3] = Occlusion-induced arrhythmias in conscious dogs, parenteral administration; type: in vivo
# Description: The effect of parenteral administration of Compound I on occlusion-induced arrhythmias in conscious dogs was determined. Occulsion was achieved by ligation of the left anteria descending coronary artery on 5 dogs.
# Compound I was administered once within 24 hours and once within 48 hours after ligation.
# [4] = Acute toxicity, i.p. injection in mice; settings: mouse, in vivo, ip, 0.5% solution, male albino ICR mice, probit analysis
# Description: The toxicity of Compound I was determined by i.p. injection of a 0.5% solution of the drug into male, albino ICR mice weighing 20-25 g each. A group of six mice was used for each dose.
# [5] = Summary comparison with lidocaine: ouabain-induced arrhythmia; type: in vivo; settings: i.v.
# [6] = Biological availability by the oral route in dog; type: in vivo
# Description: The biological availability of Compound I administered by the oral route was determined first in a conscious, healthy dog that received a dose of 7.5 mg/kg subdivided in 6 gelatin capsules that were slipped down its throat.
# [7] = Interaction with electro shock-induced seizure; type: in vivo; settings: 30 volts
# Source text: (§1) The lack of interaction of Compound I with other centrally active drugs may also be taken as an indication of its lack of activity in the CNS.
# [8] = Pharmacokinetic parameters in conscious dogs with occlusion-induced arrhythmia; type: in vivo; settings: dog, blood, iv
# Description: The pharmacokinetic parameters of Compound I were determined in conscious dogs suffering from occlusion-induced arrhythmia. After intravenous injection of a single therapeutic dose, venous blood samples were withdrawn at given intervals, heparinized and analyzed for their content of Compound I by gas chromatography.
# [9] = Interaction with oxotremorine-induced tremors; type: in vivo; settings: oxotremorine 20 μg/kg i.p.; given i.p. 30 minutes prior
# Source text: as §1
# [10] = Ouabain-induced arrhythmia in dogs; type: in vivo; design: key to S.R. (sinus rhythm), Compound I treated: +: denotes return to the rhythm
# Description: In other experiments using mongrel dogs, the animals were anesthetized by an i.v. injection of nembutal (25 mg/kg), then arrhythmia was induced by the administration of decreasing doses of ouabain at 30 minute intervals, 40, 20 and 10 μg/kg. Treatment with Compound I was then carried out as described for cats.
# normal heart [11] = assay: Effect on normal heart (ECG) in nembutal-anesthetized cats; type: in vivo
# Description: Nembutal anesthetized cats responded differently. […] If drug administration was discontinued at this stage, then the severe toxic effects would disappear after 40 minutes, the heart reverting to normal sinus rhythm.
# conscious, healthy dogs = settings: dog, in vivo, iv, 5 mg/kg
# [12] = in vivo; remark: listed apart in the source
# [13] = Ouabain-induced arrhythmia in the cat; type: in vivo; design: key to S.R. (sinus rhythm), Lidocaine-treated / S.R. (sinus rhythm), Compound I treated: +: denotes return to the rhythm
# [14] = Occlusion-induced arrhythmias in conscious dogs, oral administration; type: in vivo; settings: oral 15-20 mg/kg in 4 to 6 gelatin capsules, all cases
# Description: Tests were also carried out to determine the effect of oral administration of Compound I on occlusion induced arrhythmias in conscious dogs.
# Arrhythmia was induced by occlusion of the left anterior descending artery, as above described. Following this, Compound I was administered orally to the animals at the rate of 15-20 mg/kg, the dose being divided among 4 to 6 gelatin capsules, without prior treatment such as micronization or admixture with a diluent or carrier.
# normal heart [15] = assay: Effect on normal heart (ECG) in nembutal-anesthetized dog; type: in vivo; settings: nembutal 25 mg/kg; cumulative i.v. dose 6 mg/kg over 30 minutes
# normal heart [16] = assay: Effect on normal heart (ECG) in conscious healthy dogs; type: in vivo
# Description: The effect of Compound I on the normal heart was determined by the administration of the compound as a bolus intravenous injection to conscious healthy dogs for which lead II of the electrocardiogram was monitored for as long as 2 hours after injection.
# In one case, a single dose of 5 mg/kg was administered rapidly in order to achieve a high but transient concentration in the heart. […] The ECG record reverted to normal within 15 minutes.
# [17] = Interaction with metrazole-induced convulsions; type: in vivo; settings: metrazole 100 mg/kg; i.p. 30, 60 and 90 minutes prior to metrazole
# Source text: as §1
# [18] = Interaction with Indoklon-induced seizures; type: in vivo; settings: Indoklon by inhalation 30 minutes later
# Source text: as §1
# [19] = Effect of Compound II in drug-induced (ouabain) arrhythmia; type: in vivo; settings: 2.7 kg cat, nembutal; ouabain 70 μg per kg; i.v. 1.1 mg per kg
# Description: Arrhythmia was induced in 2.7 kg cat, previously anesthetized with nembutal, by the slow infusion of ouabain over a period of one hour and to a total dose of 70 μg per kg.
# [20] = Effect of Compound II in arrhythmia induced by coronary occlusion; type: in vivo; settings: dog 15 kg, 24 hours after ligation; i.v. 3 mg per kg
# Source text: Arrhythmia was induced in a dog of 15 kg body weight, by ligation of the left anteria descending coronary artery with a silk thread number 000.
# albino mice = assay: Symptoms after intraperitoneal administration to albino mice; type: in vivo; settings: i.p.
# Source text: This is confirmed by the tests of compound II, namely the hydrochloride of 2,6-xylidide of quinuclidine-2-carboxylic acid, which was produced both by the method of French Pat. No. 1,566,045, and by the method of the present invention. Administration of Compound II to albino mice by the intraperitoneal route induced the following symptoms: […]
# [21] = dog, conditions as Table 1, hydrochloride
# [22] = cat 13, lidocaine HCl single i.v. injection 1.6 mg/kg
# [23] = cat, lidocaine HCl single i.v. injection 4 mg/kg, 4 mg/kg
compound,measurement,setting,value
"Cc1cccc(C)c1NC(=O)C1CN2CCC1CC2 (centres unmarked) [Compound I, 2,6-xylidide of quinuclidine-3-carboxylic acid hydrochloride]",Side effects: Hypotension,[1],none
same,Side effects: CNS-effects,[2],none
same,Side effects: Emesis,[2],partial
same,"Onset of effect, occlusion-induced arrhythmia within 1st 24 hr.",[3]; i.v.,2 min
same,"duration of full, uninterrupted sinus rhythm",[3]; one bolus i.v. injection of 3 mg/kg within 24 hours after ligation,≤ 20 min
same,LD50,[4],60 ± 5 mg/kg
same,"Duration of effect, ouabain-induced arrhythmia",[5],about 1 hour
same,"Onset of effect, ouabain-induced arrhythmia",[5],about 2 minutes
same,bioavailability in conscious arrhythmic dogs,"[6]; conscious arrhythmic dogs, oral, relative to healthy dog",of the same order
same,bioavailability,"[6]; dog, in vivo, po, summary table",~80%
same,Cmax,"[6]; in vivo, oral 7.5 mg/kg in 6 gelatin capsules, conscious healthy dog, read-out: Peak blood concentration",1500 to 2000 ng/mL
same,effect against electro shock-induced seizure,[7],equally ineffective
same,half-life,"[8]; i.v. single therapeutic dose, conscious arrhythmic dogs, venous blood, GC, read-out: Biological half-life (t1/2)",4 to 5 h
same,half-life,"[8]; i.v. single therapeutic dose, conscious arrhythmic dogs, read-out: t1/2 for distribution",0.0833 h
same,half-life,"[8]; summary table, read-out: t1/2 for distribution",0.0833 h
same,half-life,"[8]; summary table, read-out: t1/2 for elimination",4 to 5 h
same,Vd,"[8]; summary table, read-out: volume of distribution",0.2 L/kg
same,effect on oxotremorine-induced tremors,[9],did not affect oxotremorine-induced tremors
same,solubility,Solubility,highly soluble
same,"H.R. (heart rate), Compound I treated","[10]; dog, conditions as Table 1",170 per min
same,"S.R. (sinus rhythm), Compound I treated","[10]; dog, conditions as Table 1",+
same,"B.P. (blood pressure), Compound I treated",[10]; [21],100/80 and 140/110
same,Duration (period of observation from onset of reversal of arrhythmia),[10]; [21],40 min and 25 min
same,reappearance of arrhythmia and response to additional dose,"[10]; dogs 14, 15, one i.v. injection of […]",Arrhythmia reappeared after this period but was suppressed
same,reversal of VT to normal sinus rhythm,"[10]; dogs, 1 mg/kg single doses",reversal of VT to normal sinus shythm was achieved
same,effect on ECG,normal heart [11]; cumulative dose 6 mg/kg,broadening of the QRS occurred but sinus rhythm was maintained
same,effect on ECG,normal heart [11]; cumulative dose 10.5 mg/kg,broadening of the QRS occurred but sinus rhythm was maintained
same,effect on ECG / conduction,"normal heart [11]; cumulative dose 16.5 mg/kg, hydrochloride, 16.5 mg/kg",second degree AV block occurred; also recorded: Atrial conduction slowed down
same,time to disappearance of severe toxic effects,"normal heart [11]; drug administration discontinued after 16.5 mg/kg cumulative, heart reverting to normal sinus rhythm",40 min
same,effect on ECG / heart,"normal heart [11]; further […], total cumulative dose 23.5 mg/kg","high degree AV block, followed by cardiac standstill"
same,effect on ECG,normal heart [11]; total dose of 3 mg/kg in small increments over 34 minutes,leftward shift of the QRS complex
same,"change in posture, behavior or mood","conscious, healthy dogs","no significant change in posture, behavior or mood from control"
same,side effects,[12],absence of side effects such as hypotension and CNS stimulation
same,"B.P. (blood pressure), Compound I treated","[13]; cat 1, 0.5 mg/kg used",80/60
same,Duration (period of observation from onset of reversal of arrhythmia),"[13]; cat 1, 0.5 mg/kg used",10 min
same,"H.R. (heart rate), Compound I treated","[13]; cat 1, 0.5 mg/kg used",100 per min
same,"S.R. (sinus rhythm), Compound I treated","[13]; cat 1, 0.5 mg/kg used",+
same,Duration (period of observation from onset of reversal of arrhythmia),"[13]; cat 3, bolus i.v. 1 mg/kg, after ouabain",240 min
same,improvement of the ECG,"[13]; cat, single dose 1 mg/kg, 10 minutes after constant arrhythmia, ouabain 70-90 μg/kg cumulative",marked improvement of the ECG that lasted much longer than any improvement achieved with lidocaine
same,reappearance of arrhythmia and response to additional dose,"[13]; cats marked ##, additional dose 1 mg/kg for 2, 7 and 0.5 mg/kg for 10",suppressed again with an additional dose of EO-122
same,restoration of normal sinus rhythm,[14],fully effective in the restoration of normal sinus rhythm
same,change in the ECG,normal heart [15],no change in the ECG
same,effect on ECG,"normal heart [16]; dog, in vivo, 5 mg/kg",Broadening of the QRS complex was observed
same,time for ECG record to revert to normal,"normal heart [16]; dog, in vivo, 5 mg/kg",≤ 15 min
same,change in the ECG,"normal heart [16]; dog, in vivo, iv, 3 mg/kg",no change in the ECG
same,other signs of overt toxicity,"normal heart [16]; single dose of 5 mg/kg administered rapidly, one case",no other signs of overt toxicity
same,effect on metrazole-induced convulsions,[17],did not affect metrazole-induced convulsions
same,effect against Indoklon-induced seizures,[18],equally ineffective
"Cc1cccc(C)c1NC(=O)C1CC2CCN1CC2 (centres unmarked) [Compound II, 2,6-xylidide of quinuclidine-2-carboxylic acid hydrochloride]",effect in ouabain-induced arrhythmia,[19],precipitated ventricular fibrillation and death
same,neurotoxicity,[20],clear signs of neurotoxicity such as undue excitement and lateral movements of the head
same,response in the electrocardiogram,[20],only a fleeting response in the electrocardiogram with only a few signs of improvement
same,cause of death,albino mice; 100 mg per kg,respiratory failure
same,lethal dose,albino mice; albino mice,100 mg. per kg
same,Effects,albino mice; dose range 20-30 mg per kg,"increased locomotion, excitation"
same,Effects,"albino mice; dose range 40-60 mg per kg, hydrochloride","pronounced neurotoxicity, ataxia; also recorded: partial paralysis"
CCN(CC)CC(=O)Nc1c(C)cccc1C [Lidocaine],Side effects: Emesis,[2],partial
same,Side effects: Hypotension,[2],about 20%
same,"Onset of effect, occlusion-induced arrhythmia within 1st 24 hr.",[3]; i.v.,2 min
same,Single therapeutic dose for suppression of Occlusion-induced arrhythmia within 1st 24 hr. after operation,[3]; i.v.,often ineffective
same,effect of lidocaine on occlusion-induced arrhythmia,"[3]; same animals, bolus i.v. 3 mg/kg",either completely ineffective or of ultra-short duration
same,"Onset of effect, ouabain-induced arrhythmia",[5],about 2 minutes
same,"B.P. (blood pressure), Lidocaine-treated",[13]; [22],130/100
same,Duration (period of observation from onset of reversal of arrhythmia),[13]; [22],3 min
same,"H.R. (heart rate), Lidocaine-treated",[13]; [22],80 per min
same,"S.R. (sinus rhythm), Lidocaine-treated",[13]; [22],+
same,"B.P. (blood pressure), Lidocaine-treated",[13]; [23],60/40 and 120/80
same,"H.R. (heart rate), Lidocaine-treated",[13]; [23],150 per min and 110 per min
same,reappearance of arrhythmia after lidocaine,[13]; cats 12 and 13,Arrhythmia reappeared
